Source: patent publication US20020183256A1, “Cytostatic-integrin conjugates having specifically cleavable linking units” (priority 2000, published 2002)
Where two headings read alike, the source gives them in different places. *1 amine or outer side, *2 acyl side, *3 side chain or, on linkers, in order; H or OH if unused. Where a SMILES comes first, the peptide text is derived from it. [ ]: non-standard residue; d: D form. The star is where a group is joined. Camptothecin(20R,20-O) = CC[C@]1(O*)C(=O)OCc2c1cc1n(c2=O)Cc2cc3ccccc3nc2-1; X2 = CCCNC(=O)Nc1cccc(S(=O)(=O)Nc2cccc(C(CC(=O)O)NC(=O)Nc3ccc(N*)cc3)c2)c1; X3 = O=C(Nc1cccc(-c2ccc(S(=O)(=O)*)cc2)c1)Nc1nc2ccccc2[nH]1; X5 = O=C(Nc1cccc(-c2cccc(S(=O)(=O)*)c2)c1)Nc1nc2ccccc2[nH]1; X1 = CCCNC(=O)Nc1cccc(S(=O)(=O)Nc2cccc(C(CC(=O)O)N*)c2)c1; NH(1,4-C6H4)NHCS = S=C(Nc1ccc(N[*:1])cc1)[*:2]; X4 = O=C(O)CC(N[*:1])c1cccc(NC(=S)[*:2])c1; CO = O=C([*:1])[*:2]

Key:
αvβ3 receptor = target: T1, αvβ3 receptor (Homo sapiens, UniProt P05106+P06756); test: αvβ3 binding test (echistatin displacement, WGA SPA beads); settings: αvβ3 from human A375 cells
T1 construct: αvβ3 from human A375 cells was purified; endogenous in cells; host or cells: human A375 cells (receptor purified from the cells, analogous to Wong et al. 1996)
Method: αvβ3 from human A375 cells was purified analogously to a procedure which was described by Wong et al. (Molecular Pharmacology, 50, 529-537 (1996)). In each case, 10 μl of αvβ3 (5 ng) in TBS pH 7.6, 2 mM CaCl2, 1 mM MgCl2, 1% n-octylglucopyranoside (Sigma); 10 μl of test substance in TBS pH 7.6, 0.1% DMSO and 45 μl of TBS pH 7.6, 2 mM CaCl2, 1 mM MgCl2, 1 mM MnCl2 were incubated at room temperature for 1 h. In each case, 25 μl of WGA SPA beads (Amersham, 4 mg/ml) and 10 μl of echistatin (0.1 μCi, Amersham, chloramine-T labelled) were then added. After 16 hours at room temperature, the samples were measured in a scintillation measuring apparatus (Wallac 1450).

HT29 = test: Growth inhibition test (MTT), cytotoxic action on tumour cell lines; format: cell-based, human
Method: (§1) The human large intestine cell lines SW 480 and HT29 (ATCC No. CCL 228 and HTB38 and the mouse melanoma cell line B16F10 (CRL 6475) were grown to confluence in Roux dishes in RPMI 1640 medium with addition of 10% FCS. They were then trypsinized and taken up in RPMI plus 10% FCS to a cell count of 50,000 cells or, for B16F10, 20,000 cells per ml. 100 μl of cell suspension/well were added to a 96 microwell plate and incubated at 37° C. for 1 day in a CO2 incubator. A further 100 μl of RPMI medium and 1 μl of DMSO were then added with the test substances. The growth was checked after day 6. For this, 25 μl of MTT solution (3-(4,5-dimethylthiazol-2-yl)-2,5-diphenyltetrazolium bromide) was added to each well at a starting concentration of 5 mg/ml of H2O. The plate was incubated at 37° C. for 5 hours in a CO2 incubator. The medium was then aspirated and 100 μl of i-propanol/well were added. After shaking with 100 μl of H2O for 30 min, the extinction was measured at 595 nm using a Multiplate Reader (BIO-RAD) 3550-UV).
(§2) The cytostatic action is indicated in Table 2 as an IC50 value, in each case for the individual cell lines.

SW 480 = test: as above; format: cell-based, human
Method: as §1, §2

B16F10 = test: as above; format: cell-based, mouse
Method: as §1, §2

MMP-2 = target: T2, MMP-2 (Homo sapiens, UniProt P08253); test: Cleavage of conjugates by MMP-2 in buffer (HPLC); format: biochemical; settings: after 6 h incubation with MMP-2; buffer pH 7.5
T2 construct: purchased Calbiochem
T2 sequence (P08253 110-660): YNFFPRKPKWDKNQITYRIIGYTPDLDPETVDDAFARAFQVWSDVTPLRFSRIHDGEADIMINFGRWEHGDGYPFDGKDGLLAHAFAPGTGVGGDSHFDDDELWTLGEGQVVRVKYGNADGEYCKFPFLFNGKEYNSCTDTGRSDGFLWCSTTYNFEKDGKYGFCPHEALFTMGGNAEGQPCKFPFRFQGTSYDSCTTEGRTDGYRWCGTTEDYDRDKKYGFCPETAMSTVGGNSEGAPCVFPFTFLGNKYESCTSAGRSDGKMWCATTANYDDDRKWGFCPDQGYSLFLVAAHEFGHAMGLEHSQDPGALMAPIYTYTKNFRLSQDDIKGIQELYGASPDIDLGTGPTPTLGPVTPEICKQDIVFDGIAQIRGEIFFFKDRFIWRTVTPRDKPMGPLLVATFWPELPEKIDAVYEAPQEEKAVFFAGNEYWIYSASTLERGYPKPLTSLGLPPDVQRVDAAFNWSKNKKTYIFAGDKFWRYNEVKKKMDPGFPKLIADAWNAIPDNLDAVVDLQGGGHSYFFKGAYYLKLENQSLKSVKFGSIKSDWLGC
Method: 2.5 μl MMP-2 (Calbiochem) with a specific activity of 60 μU/μl are incubated with 10 nM of the conjugates exemplified in the example series 1-25 in 1 ml of a medium consisting of 50 mM Tris-HCl pH 7.5, 0.2 M NaCl, 10 mM CaCL2*2H2O and 0.05% Brij 35. The enzyme mediated cleavage of the conjugates is detected by HPLC analysis using an RP18 (5 μM) column with 70% HClO4/water (0.4% v/v) as eluent A and acentonitrile as eluent B (UV detection at […]). The efficiency of the cleavage is assessed by comparing the peak areas of the intact conjugate (starting material) and the cleavage product (tripeptide conjugate of camptothecin) after 6 h and 24 h incubation (cf. Table 5).

[1] = read-out: IC50 values of the binding to the αvβ3 receptor
[2] = IC50 values of the binding to the αvβ3 receptor
[3] = HT29, MTT after day 6, read-out: IC50 values of the cytotoxic action on tumour cell lines, HT29
[4] = SW480, MTT after day 6, read-out: IC50 values of the cytotoxic action on tumour cell lines, SW480
[5] = B16F10, MTT after day 6, read-out: IC50 values of the cytotoxic action on tumour cell lines, B16F10

T1 sequence (P06756 31-889 limits assumed): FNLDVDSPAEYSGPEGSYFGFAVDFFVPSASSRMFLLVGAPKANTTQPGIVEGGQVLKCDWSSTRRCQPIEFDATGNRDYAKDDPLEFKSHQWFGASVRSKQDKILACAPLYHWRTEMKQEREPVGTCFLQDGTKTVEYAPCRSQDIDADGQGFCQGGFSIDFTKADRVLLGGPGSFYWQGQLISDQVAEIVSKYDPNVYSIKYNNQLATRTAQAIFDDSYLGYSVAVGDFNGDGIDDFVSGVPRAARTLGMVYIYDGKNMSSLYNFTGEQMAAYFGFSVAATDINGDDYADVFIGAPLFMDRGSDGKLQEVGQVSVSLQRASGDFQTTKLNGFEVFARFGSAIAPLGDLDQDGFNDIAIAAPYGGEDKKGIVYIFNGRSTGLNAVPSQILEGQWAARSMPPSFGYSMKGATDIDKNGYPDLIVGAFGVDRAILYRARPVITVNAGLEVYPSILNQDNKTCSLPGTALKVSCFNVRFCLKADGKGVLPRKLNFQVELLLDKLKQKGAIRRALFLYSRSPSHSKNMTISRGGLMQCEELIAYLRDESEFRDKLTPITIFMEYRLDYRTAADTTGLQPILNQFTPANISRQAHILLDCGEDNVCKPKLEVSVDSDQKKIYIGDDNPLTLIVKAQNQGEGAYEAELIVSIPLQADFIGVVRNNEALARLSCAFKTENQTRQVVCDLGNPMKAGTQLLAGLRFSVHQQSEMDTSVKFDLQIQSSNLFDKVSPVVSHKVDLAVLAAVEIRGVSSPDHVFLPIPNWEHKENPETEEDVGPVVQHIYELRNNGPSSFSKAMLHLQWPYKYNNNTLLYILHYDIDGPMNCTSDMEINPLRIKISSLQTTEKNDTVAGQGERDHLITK
T1 sequence (P06756 891-1048 partner limits assumed): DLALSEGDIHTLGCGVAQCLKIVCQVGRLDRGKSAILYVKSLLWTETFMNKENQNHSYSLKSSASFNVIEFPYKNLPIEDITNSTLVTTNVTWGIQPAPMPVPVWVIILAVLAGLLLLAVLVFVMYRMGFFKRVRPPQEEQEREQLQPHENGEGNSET
T1 sequence (P05106 27-788): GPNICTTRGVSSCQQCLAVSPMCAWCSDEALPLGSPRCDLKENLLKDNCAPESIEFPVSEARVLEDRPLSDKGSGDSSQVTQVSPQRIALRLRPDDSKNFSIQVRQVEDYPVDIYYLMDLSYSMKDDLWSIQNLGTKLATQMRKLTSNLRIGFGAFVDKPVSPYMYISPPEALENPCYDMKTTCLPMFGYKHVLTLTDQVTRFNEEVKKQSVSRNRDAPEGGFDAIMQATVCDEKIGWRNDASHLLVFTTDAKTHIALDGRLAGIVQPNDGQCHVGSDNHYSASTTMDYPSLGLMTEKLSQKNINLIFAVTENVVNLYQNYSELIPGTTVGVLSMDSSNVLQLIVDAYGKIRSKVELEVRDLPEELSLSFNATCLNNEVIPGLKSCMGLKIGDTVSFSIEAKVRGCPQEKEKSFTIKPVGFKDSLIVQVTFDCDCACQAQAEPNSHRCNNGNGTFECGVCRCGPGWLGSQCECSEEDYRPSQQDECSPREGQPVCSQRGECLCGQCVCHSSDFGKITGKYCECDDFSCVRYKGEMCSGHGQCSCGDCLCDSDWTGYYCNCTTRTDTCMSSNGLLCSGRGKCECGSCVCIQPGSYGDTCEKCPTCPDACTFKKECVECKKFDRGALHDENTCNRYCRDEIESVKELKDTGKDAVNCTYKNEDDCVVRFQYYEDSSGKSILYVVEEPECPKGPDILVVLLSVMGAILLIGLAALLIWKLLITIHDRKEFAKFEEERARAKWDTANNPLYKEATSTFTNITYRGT

SMILES | IC50 (αvβ3 receptor; [1]) | IC50 (HT29; human, 6 days) | IC50 (SW 480; human, 6 days) | IC50 (B16F10; mouse, 6 days) | MMP-2 mediated cleavage Peak area product/educt x100 (MMP-2) | IC50 (αvβ3 receptor; [2]) | IC50 (HT29; [3]) | IC50 (SW 480; [4]) | IC50 (B16F10; [5])
CCCNC(=O)Nc1cccc(S(=O)(=O)Nc2cccc(C(CC(=O)O)NC(=O)Nc3ccc(NC(=S)N4CCC[C@@H]4C(=O)N[C@@H](CC(C)C)C(=O)NCC(=O)N[C@H](CC(C)C)C(=O)N[C@H](Cc4c[nH]cn4)C(=O)N[C@@H](C(=O)O[C@@]4(CC)C(=O)OCc5c4cc4n(c5=O)Cc5cc6ccccc6nc5-4)C(C)C)cc3)c2)c1 (single isomer, unassigned) [Example 3] | 45 nM | 200 nM | 150 nM | 600 nM | 25 | – | – | – | –
CCCNC(=O)Nc1cccc(S(=O)(=O)Nc2cccc(C(CC(=O)O)NC(=O)Nc3ccc(NC(=S)N4CCC[C@@H]4C(=O)N[C@@H](CC(C)C)C(=O)NCC(=O)N[C@H](CC(C)C)C(=O)N[C@H](CC(N)=O)C(=O)N[C@@H](C(=O)O[C@@]4(CC)C(=O)OCc5c4cc4n(c5=O)Cc5cc6ccccc6nc5-4)C(C)C)cc3)c2)c1 (single isomer, unassigned) [Example 11] | 300 nM | 200 nM | 150 nM | 400 nM | 20 | – | – | – | –
CC[C@]1(OC(=O)[C@H](NC(=O)[C@@H](Cc2c[nH]cn2)NC(=O)[C@@H](CC(C)C)NC(=O)CNC(=O)[C@H](CC(C)C)NC(=O)[C@H]2CCCN2C(=S)Nc2cccc(C(CC(=O)O)NS(=O)(=O)c3ccc(-c4cccc(NC(=O)Nc5nc6ccccc6[nH]5)c4)cc3)c2)C(C)C)C(=O)OCc2c1cc1n(c2=O)Cc2cc3ccccc3nc2-1 (stereo partly drawn) [Example 4] (X3-[X4][dP]LG[dL][dH][dV]-{Camptothecin(20R,20-O)}) | – | – | – | – | 6 | 150 nM | 90 nM | 70 nM | 400 nM
CC[C@]1(OC(=O)[C@H](NC(=O)[C@@H](Cc2c[nH]cn2)NC(=O)[C@@H](CC(C)C)NC(=O)CNC(=O)[C@H](CC(C)C)NC(=O)[C@H]2CCCN2C(=S)Nc2cccc(C(CC(=O)O)NS(=O)(=O)c3cccc(-c4cccc(NC(=O)Nc5nc6ccccc6[nH]5)c4)c3)c2)C(C)C)C(=O)OCc2c1cc1n(c2=O)Cc2cc3ccccc3nc2-1 (stereo partly drawn) [Example 5] (X5-[X4][dP]LG[dL][dH][dV]-{Camptothecin(20R,20-O)}) | – | – | – | – | 5 | 6000 nM | 100 nM | 80 nM | 350 nM
CCCNC(=O)Nc1cccc(S(=O)(=O)Nc2cccc(C(CC(=O)O)NC(=O)Nc3ccc(NC(=O)N4CCC[C@@H]4C(=O)N[C@@H](CC(C)C)C(=O)NCC(=O)N[C@H](CC(C)C)C(=O)N[C@H](Cc4c[nH]cn4)C(=O)N[C@@H](C(=O)O[C@@]4(CC)C(=O)OCc5c4cc4n(c5=O)Cc5cc6ccccc6nc5-4)C(C)C)cc3)c2)c1 (stereo partly drawn) [Example 6] ({X2-CO}-[dP]LG[dL][dH][dV]-{Camptothecin(20R,20-O)}) | – | – | – | – | 33 | 60 nM | 40 nM | 50 nM | 150 nM
CCCNC(=O)Nc1cccc(S(=O)(=O)Nc2cccc(C(CC(=O)O)NC(=O)Nc3ccc(NC(=S)N4CCCC4C(=O)NC(CC(C)C)C(=O)NCC(=O)N[C@H](CC(C)C)C(=O)N[C@@H](C(=O)O[C@@]4(CC)C(=O)OCc5c4cc4n(c5=O)Cc5cc6ccccc6nc5-4)C(C)C)cc3)c2)c1 (stereo partly drawn) [Example 8] | – | – | – | – | – | 30 nM | 150 nM | 200 nM | 350 nM
CCCNC(=O)Nc1cccc(S(=O)(=O)Nc2cccc(C(CC(=O)O)NC(=O)Nc3ccc(NC(=S)N4CCC[C@@H]4C(=O)N[C@@H](CC(C)C)C(=O)NCC(=O)N[C@H](CC(C)C)C(=O)N[C@H](CC(N)=O)C(=O)N[C@@H](C(=O)O[C@@]4(CC)C(=O)OCc5c4cc4n(c5=O)Cc5cc6ccccc6nc5-4)C(C)C)cc3)c2)c1 (stereo partly drawn) [Example 9] | 30 nM | 80 nM | 60 nM | 400 nM | – | – | – | – | –
CCCNC(=O)Nc1cccc(S(=O)(=O)Nc2cccc(C(CC(=O)O)NC(=O)Nc3ccc(NC(=O)N4CCC[C@@H]4C(=O)N[C@@H](CC(C)C)C(=O)NCC(=O)N[C@H](CC(C)C)C(=O)N[C@H](CC(N)=O)C(=O)N[C@@H](C(=O)O[C@@]4(CC)C(=O)OCc5c4cc4n(c5=O)Cc5cc6ccccc6nc5-4)C(C)C)cc3)c2)c1 (stereo partly drawn) [Example 12] ({X2-CO}-[dP]LG[dL][dN][dV]-{Camptothecin(20R,20-O)}) | – | – | – | – | 70 | 300 nM | 30 nM | 40 nM | 150 nM
CCCNC(=O)Nc1cccc(S(=O)(=O)Nc2cccc(C(CC(=O)O)NC(=O)Nc3ccc(NC(=S)N4CCC[C@@H]4C(=O)N[C@@H](CC(C)C)C(=O)NCC(=O)N[C@H](CC(C)C)C(=O)N[C@H](CSC)C(=O)N[C@@H](C(=O)O[C@@]4(CC)C(=O)OCc5c4cc4n(c5=O)Cc5cc6ccccc6nc5-4)C(C)C)cc3)c2)c1 (stereo partly drawn) [Example 13] ({X1-CO}-[NH(1,4-C6H4)NHCS][dP]LG[dL][dC](Me)[dV]-{Camptothecin(20R,20-O)}) | – | – | – | – | – | 50 nM | 100 nM | 80 nM | 400 nM
CCCNC(=O)Nc1cccc(S(=O)(=O)Nc2cccc(C(CC(=O)O)NC(=O)Nc3ccc(NC(=O)N4CCC[C@@H]4C(=O)N[C@@H](CC(C)C)C(=O)NCC(=O)N[C@H](CC(C)C)C(=O)N[C@H](Cc4c[nH]c5ccccc45)C(=O)N[C@@H](C(=O)O[C@@]4(CC)C(=O)OCc5c4cc4n(c5=O)Cc5cc6ccccc6nc5-4)C(C)C)cc3)c2)c1 (stereo partly drawn) [Example 15] ({X2-CO}-[dP]LG[dL][dW][dV]-{Camptothecin(20R,20-O)}) | – | – | – | – | – | 500 nM | 500 nM | 1500 nM | 8000 nM
CCCNC(=O)Nc1cccc(S(=O)(=O)Nc2cccc(C(CC(=O)O)NC(=O)Nc3ccc(NC(=S)N4CCC[C@@H]4C(=O)N[C@@H](CC(C)C)C(=O)NCC(=O)N[C@H](CSC)C(=O)N[C@H](Cc4c[nH]cn4)C(=O)N[C@@H](C(=O)O[C@@]4(CC)C(=O)OCc5c4cc4n(c5=O)Cc5cc6ccccc6nc5-4)C(C)C)cc3)c2)c1 (stereo partly drawn) [Example 19] | 20 nM | 80 nM | 60 nM | 300 nM | – | – | – | – | –
CCCNC(=O)Nc1cccc(S(=O)(=O)Nc2cccc(C(CC(=O)O)NC(=O)Nc3ccc(NC(=S)N4CCC[C@@H]4C(=O)N[C@@H](CC(C)C)C(=O)NCC(=O)N[C@H](CC(C)C)C(=O)N[C@H](CCCCN)C(=O)N[C@H](C(=O)O[C@@]4(CC)C(=O)OCc5c4cc4n(c5=O)Cc5cc6ccccc6nc5-4)C(C)C)cc3)c2)c1 (stereo partly drawn) [Example 20] ({X1-CO}-[NH(1,4-C6H4)NHCS][dP]LG[dL][dK]V-{Camptothecin(20R,20-O)}) | – | – | – | – | – | 50 nM | 70 nM | 50 nM | 300 nM
